Source: ChEMBL document CHEMBL1149754, “Synthesis and evaluation of a focused library of pyridine dicarbonitriles against prion disease” (Eur J Med Chem, 2008)

Columns and labels:
[1] = target: Major prion protein (Homo sapiens) (UniProt P04156); assay: Binding affinity to human prion protein by surface plasmon resonance assay
[2] = target: Major prion protein (Mus musculus) (UniProt P04925); assay: Binding affinity to mouse prion protein by surface plasmon resonance assay
[3] = Inhibition of PrPSc formation in mouse SMB cells at 10 uM relative to control; type: functional
[4] = Inhibition of PrPSc formation in mouse SMB cells at 5 uM relative to control; type: functional
[5] = Toxicity against mouse SMB cells at 10 uM after 5 days by MTT assay; type: cell-based; details: 120 h
[6] = Inhibition of PrPSc formation in mouse SMB cells at 0.05 uM relative to control; type: functional
[7] = Inhibition of PrPSc formation in mouse SMB cells at 1 uM relative to control; type: functional
[8] = Toxicity against mouse SMB cells after 5 days by MTT assay; type: cell-based; details: 120 h
[9] = Inhibition of PrPSc formation in mouse SMB cells; type: functional, cell-based
[10] = Inhibition of PrPSc formation in mouse SMB cells at 7.5 uM relative to control; type: functional

Sequence of Major prion protein (Mus musculus) (P04925 whole entry): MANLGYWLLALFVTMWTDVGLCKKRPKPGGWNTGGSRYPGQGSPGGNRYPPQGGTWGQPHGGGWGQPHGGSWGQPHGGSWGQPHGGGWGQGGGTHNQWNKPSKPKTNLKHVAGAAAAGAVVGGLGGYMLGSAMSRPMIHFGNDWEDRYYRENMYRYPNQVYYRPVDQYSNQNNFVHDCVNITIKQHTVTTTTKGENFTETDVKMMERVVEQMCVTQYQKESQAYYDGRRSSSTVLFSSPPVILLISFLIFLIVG

Row | SMILES | RUmax [1] | RUmax [2] | inhibition at 10 µM [3] | other results
1 | N#Cc1c(N)nc(Sc2ccccc2O)c(C#N)c1-c1ccc(Cl)cc1 | 9.1% | 0% | 76% | –
2 | N#Cc1c(N)nc(Sc2cccc(Cl)c2)c(C#N)c1-c1cccc(O)c1 | – | – | – | inhibition at 5 µM [4]: 36%; Activity [5]: Toxic
3 | N#Cc1c(N)nc(Sc2ccc(O)cc2)c(C#N)c1-c1ccc(Cl)cc1 | – | – | 90% | –
4 | COC(=O)c1ccc(Sc2nc(N)c(C#N)c(-c3ccco3)c2C#N)cc1 | – | – | 69% | –
5 | N#Cc1c(N)nc(Sc2cccc(O)c2)c(C#N)c1-c1cccc(O)c1 | – | – | – | inhibition at 5 µM [4]: 36%; Activity [5]: Toxic
6 | N#Cc1c(N)nc(Sc2cccc(O)c2)c(C#N)c1-c1cccs1 | – | – | 77% | –
7 | COC(=O)c1ccc(Sc2nc(N)c(C#N)c(-c3ccc4c(c3)OCCO4)c2C#N)cc1 | 6% | 0% | – | inhibition at 0.05 µM [6]: 23%
8 | N#Cc1c(N)nc(Sc2cccc(Cl)c2)c(C#N)c1-c1ccco1 | – | – | 94% | –
9 | COC(=O)c1ccc(-c2c(C#N)c(N)nc(Sc3cccc(O)c3)c2C#N)cc1 | 8.4% | 0% | 77% | –
10 | COC(=O)c1ccc(-c2c(C#N)c(N)nc(Sc3ccccc3O)c2C#N)cc1 | 5.7% | 0% | 72% | –
11 | COC(=O)c1ccc(-c2c(C#N)c(N)nc(Sc3ccc(Cl)cc3)c2C#N)cc1 | 10.6% | 2.4% | 73% | –
12 | COC(=O)c1cccc(Sc2nc(N)c(C#N)c(-c3cccs3)c2C#N)c1 | – | – | 87% | –
13 | N#Cc1c(N)nc(Sc2ccc(O)cc2)c(C#N)c1-c1cccs1 | – | – | 86% | –
14 | COC(=O)c1cccc(Sc2nc(N)c(C#N)c(-c3ccc(Cl)cc3)c2C#N)c1 | 6.2% | 0% | – | inhibition at 1 µM [7]: 63%
15 | COC(=O)c1cccc(Sc2nc(N)c(C#N)c(-c3ccc4c(c3)OCO4)c2C#N)c1 | 156% | 70.4% | 75% | –
16 | N#Cc1c(N)nc(Sc2ccc(Cl)cc2)c(C#N)c1-c1ccco1 | 37% | 44.8% | 73% | –
17 | N#Cc1c(N)nc(Sc2ccc(O)cc2)c(C#N)c1-c1ccco1 | 21.9% | 19.6% | – | inhibition at 0.05 µM [6]: 24%
18 | N#Cc1c(N)nc(Sc2ccc(O)cc2)c(C#N)c1-c1ccc2c(c1)OCCO2 | – | – | – | Activity [8]: Toxic
19 | COC(=O)c1cccc(Sc2nc(N)c(C#N)c(-c3cccc(O)c3)c2C#N)c1 | – | – | 123% | –
20 | N#Cc1c(N)nc(Sc2ccccc2)c(C#N)c1-c1ccc2c(c1)OCO2 | – | – | 86% | –
21 | N#Cc1c(N)nc(Sc2ccc(Cl)cc2)c(C#N)c1-c1ccc2c(c1)OCO2 | – | – | 67% | –
22 | COC(=O)c1ccc(Sc2nc(N)c(C#N)c(-c3cccc(O)c3)c2C#N)cc1 | – | – | 70% | –
23 | N#Cc1c(N)nc(Sc2cccc(Cl)c2)c(C#N)c1-c1ccc(Cl)cc1 | – | – | 71% | –
24 | N#Cc1c(N)nc(Sc2ccc(Cl)cc2)c(C#N)c1-c1cccs1 | 8.8% | 0% | – | EC50 [9]: 3 µM
25 | N#Cc1c(N)nc(SCc2ccccc2)c(C#N)c1-c1ccc2c(c1)OCCO2 | – | – | 94% | –
26 | N#Cc1c(N)nc(SCc2ccccc2)c(C#N)c1-c1ccco1 | – | – | 111% | –
27 | N#Cc1c(N)nc(Sc2cccc(Cl)c2)c(C#N)c1-c1cccs1 | 124% | 72.2% | 84% | –

Row | SMILES | RUmax [1] | RUmax [2] | inhibition at 10 µM [3] | other results
28 | N#Cc1c(N)nc(Sc2cccc(O)c2)c(C#N)c1-c1ccc2c(c1)OCCO2 | – | – | 86% | –
29 | COC(=O)c1ccc(Sc2nc(N)c(C#N)c(-c3ccc(C(=O)OC)cc3)c2C#N)cc1 | – | – | – | EC50 [9]: 9 µM
30 | N#Cc1c(N)nc(SCc2ccccc2)c(C#N)c1-c1ccc2c(c1)OCO2 | – | – | 79% | –
31 | N#Cc1c(N)nc(Sc2ccc(O)cc2)c(C#N)c1-c1ccc2c(c1)OCO2 | – | – | 82% | –
32 | N#Cc1c(N)nc(SCc2ccccc2)c(C#N)c1-c1cccc(O)c1 | 96.5% | 112% | 113% | –
33 | N#Cc1c(N)nc(Sc2ccc(Cl)cc2)c(C#N)c1-c1ccc2c(c1)OCCO2 | – | – | 68% | –
34 | N#Cc1c(N)nc(SCc2ccccc2)c(C#N)c1-c1cccs1 | 55.5% | 52.6% | 81% | –
35 | N#Cc1c(N)nc(Sc2cccc(O)c2)c(C#N)c1-c1ccc(Cl)cc1 | – | – | 73% | –
36 | N#Cc1c(N)nc(Sc2ccc(Cl)cc2)c(C#N)c1-c1ccc(Cl)cc1 | 19.3% | 1.6% | 72% | –
37 | N#Cc1c(N)nc(Sc2cccc(Cl)c2)c(C#N)c1-c1ccc2c(c1)OCCO2 | 11.3% | 4.3% | – | EC50 [9]: 2.5 µM
38 | COC(=O)c1ccc(Sc2nc(N)c(C#N)c(-c3cccs3)c2C#N)cc1 | – | – | 90% | –
39 | COC(=O)c1cccc(Sc2nc(N)c(C#N)c(-c3ccc4c(c3)OCCO4)c2C#N)c1 | – | – | – | inhibition at 0.05 µM [6]: 44%
40 | COC(=O)c1ccc(-c2c(C#N)c(N)nc(Sc3cccc(Cl)c3)c2C#N)cc1 | – | – | – | inhibition at 5 µM [4]: 46%
41 | N#Cc1c(N)nc(Sc2ccc(Cl)cc2)c(C#N)c1-c1cccc(O)c1 | 15.7% | 8.9% | – | EC50 [9]: 3 µM
42 | N#Cc1c(N)nc(Sc2cccc(O)c2)c(C#N)c1-c1ccc2c(c1)OCO2 | 250% | 138% | 75% | –
43 | COC(=O)c1ccc(-c2c(C#N)c(N)nc(Sc3ccc(O)cc3)c2C#N)cc1 | – | – | – | inhibition at 7.5 µM [10]: 45%
44 | N#Cc1c(N)nc(Sc2ccccc2O)c(C#N)c1-c1cccs1 | 16.9% | 6.1% | 65% | –
45 | COC(=O)c1ccc(-c2c(C#N)c(N)nc(Sc3cccc(C(=O)OC)c3)c2C#N)cc1 | – | – | – | EC50 [9]: 8 µM
46 | N#Cc1c(N)nc(Sc2cccc(Cl)c2)c(C#N)c1-c1ccc2c(c1)OCO2 | 78.6% | 10.5% | 96% | –
47 | COC(=O)c1cccc(Sc2nc(N)c(C#N)c(-c3ccco3)c2C#N)c1 | 26.9% | 2.2% | 69% | –
48 | N#Cc1c(N)nc(SCc2ccccc2)c(C#N)c1-c1ccc(Cl)cc1 | 8.6% | 0% | 92% | –
49 | N#Cc1c(N)nc(Sc2ccc(O)cc2)c(C#N)c1-c1cccc(O)c1 | – | – | 85% | –
50 | COC(=O)c1ccc(-c2c(C#N)c(N)nc(SCc3ccccc3)c2C#N)cc1 | 9.3% | 0% | 107% | –
51 | N#Cc1c(N)nc(Sc2ccccc2)c(C#N)c1-c1ccc2c(c1)OCCO2 | 27.9% | 0% | 61% | –
52 | COC(=O)c1ccc(Sc2nc(N)c(C#N)c(-c3ccc(Cl)cc3)c2C#N)cc1 | – | – | – | Activity [8]: Toxic
53 | N#Cc1c(N)nc(Sc2ccccc2O)c(C#N)c1-c1ccc2c(c1)OCCO2 | 13.6% | 4.9% | 89% | –
